From patent US9771353B2, “Kinase inhibitors based upon N-alkyl pyrazoles” (RESPIVERT LIMITED, priority 2013, dated 2017)

Experiments:
PBMCs [1] = assay: IL-2 and IFN gamma release in CD3/CD28 stimulated PBMC cells, assay (c); assay type: cell-based; details: Homo sapiens, IFNγ, read-out: IC50 Values for Inhibition of Cytokine Release, PBMCs IFNγ
Procedure: PBMCs from healthy subjects are separated from whole blood using a density gradient (Lymphoprep, Axis-Shield Healthcare). Cells are added to a 96 well plate pre-coated with a mixture of CD3/CD28 monoclonal antibodies (0.3 μg/mL eBioscience and 3 μg/mL BD Pharmingen respectively). Compound at the desired concentration is then added to the wells and the plate left for 3 days under normal tissue culture conditions. Supernatants are harvested and IL-2 and IFN gamma release determined by Sandwich ELISA (Duo-set, R&D System). The IC50 is determined from the dose response curve.

Syk = Syk (Homo sapiens (Human), UniProt P43405); assay: Syk enzyme inhibition (FRET, Z-LYTE); assay type: biochemical
Procedure: (§1) The enzyme inhibitory activities of compounds disclosed herein are determined by FRET using synthetic peptides labelled with both donor and acceptor fluorophores (Z-LYTE, Invitrogen Ltd., Paisley, UK).
(§2) The inhibitory activities of compounds of the invention against c-Src and Syk enzymes (Invitrogen), are evaluated in a similar fashion to that described hereinabove. The relevant enzyme (3000 ng/mL or 2000 ng/mL respectively, 2.5 μL) is incubated with the test compound (either 4 μg/mL, 0.4 μg/mL, 0.04 μg/mL, or 0.004 μg/mL, 2.5 μL each) for 2 hr at RT. The FRET peptides (8 μM, 2.5 μL), and appropriate ATP solutions (2.5 μL, 800 μM for c-Src, and 60 μM ATP for Syk) are then added to the enzymes/compound mixtures and incubated for 1 hr. Development reagent (protease, 5 μL) is added for 1 hr prior to detection in a fluorescence microplate reader (Varioskan® Flash, ThermoFisher Scientific).
(§3) In all cases, the site-specific protease cleaves non-phosphorylated peptide only and eliminates the FRET signal. Phosphorylation levels of each reaction are calculated using the ratio of coumarin emission (donor) over fluorescein emission (acceptor), for which high ratios indicate high phosphorylation and low ratios indicate low phosphorylation levels.

PBMCs [2] = assay: LPS-induced TNFα/IL-8 release in PBMC cells, assay (b); assay type: cell-based; details: Homo sapiens, LPS-stimulated PBMCs, read-out: IC50 Values for Inhibition of Cytokine Release, PBMCs IL-8
Procedure: Peripheral blood mononuclear cells (PBMCs) from healthy subjects are separated from whole blood using a density gradient (Lymphoprep, Axis-Shield Healthcare). The PBMCs are seeded in 96 well plates and treated with compounds at the desired concentration for 2 hours before addition of 1 ng/mL LPS (Escherichia Coli 0111:B4 from Sigma Aldrich) for 24 hours under normal tissue culture conditions (37° C., 5% CO2). The supernatant is harvested for determination of IL-8 and TNFα concentrations by sandwich ELISA (Duo-set, R&D systems) and read on the fluorescence microplate reader (Varioskan® Flash, ThermoFisher Scientific).

GSK3α = GSK3α (Homo sapiens (Human), UniProt P49840); assay: GSK 3α enzyme inhibition (FRET, Z-LYTE), Method 2; assay type: biochemical
Chain of GSK3α (P49840 whole entry): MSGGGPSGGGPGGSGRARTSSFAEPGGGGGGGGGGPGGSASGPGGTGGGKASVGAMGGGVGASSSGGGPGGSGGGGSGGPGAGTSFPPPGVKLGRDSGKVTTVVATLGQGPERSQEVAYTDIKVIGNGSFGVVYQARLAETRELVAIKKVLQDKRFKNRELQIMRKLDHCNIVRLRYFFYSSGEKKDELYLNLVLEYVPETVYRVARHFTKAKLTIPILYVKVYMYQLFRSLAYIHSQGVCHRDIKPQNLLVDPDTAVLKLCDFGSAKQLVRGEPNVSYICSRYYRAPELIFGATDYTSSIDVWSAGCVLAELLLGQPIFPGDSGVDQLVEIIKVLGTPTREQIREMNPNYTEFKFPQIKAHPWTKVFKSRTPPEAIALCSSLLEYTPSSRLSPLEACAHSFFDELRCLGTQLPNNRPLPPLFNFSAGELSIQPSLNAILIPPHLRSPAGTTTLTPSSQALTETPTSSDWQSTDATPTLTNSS
Procedure: as §1
The inhibitory activities of compounds of the invention against the GSK 3α enzyme isoform (Invitrogen), are evaluated by determining the level of activation/phosphorylation of the target peptide. The GSK3-α protein (500 ng/mL, 2.5 μL) is mixed with the test compound (2.5 μL at either 4 μg/mL, 0.4 μg/mL, 0.04 μg/mL, or 0.004 μg/mL) for 2 hr at RT. The FRET peptide (8 μM, 2.5 μL), which is a phosphorylation target for GSK3α, and ATP (40 μM, 2.5 μL) are then added to the enzyme/compound mixture and the resulting mixture incubated for 1 hr. Development reagent (protease, 5 μL) is added for 1 hr prior to detection in a fluorescence microplate reader (Varioskan® Flash, ThermoFisher Scientific).
as §3
This method follows the same steps as Method 1 above, but utilises a shorter period of mixing of the test compound (105 minutes instead of 2 hours) with the GSK3-α protein.

d-U937 cells = assay: Accumulation of β catenin in d-U937 cells, assay (m); assay type: cell-based, human
Procedure: U937 cells, a human monocytic cell line, are differentiated into macrophage-type cells by incubation with PMA; (100 ng/mL) for between 48 to 72 hr. The cells are then incubated with either final concentrations of test compound or vehicle for 18 hr. The induction of β-catenin by the test compounds is stopped by replacing the media with 4% formaldehyde solution. Endogenous peroxide activity is neutralised by incubating with quenching buffer (100 μL, 0.1% sodium azide, 1% H2O2 in PBS with 0.05% Tween-20) for 20 min. The cells are washed with washing buffer (200 μL; PBS containing 0.05% Tween-20) and incubated with blocking solution (200 μL; 5% milk in PBS) for 1 hr, re-washed with washing buffer (200 μL) and then incubated overnight with anti-β-catenin antibody solution (50 μL) in 1% BSA/PBS (BD, Oxford, UK).
After washing with washing buffer (3×200 μL; PBS containing 0.05% Tween-20), cells are incubated with an HRP-conjugated secondary antibody solution (100 μL) in 1% BSA/PBS (Dako, Cambridge, UK) and the resultant signal is determined colourimetrically (OD: 450 nm with a reference wavelength of 655 nm) using TMB substrate (50 μL; R&D Systems, Abingdon, UK). This reaction is stopped by addition of 1N H2SO4 solution (50 μL). Cells are then washed with washing buffer and 2% crystal violet solution (50 μL) is applied for 30 min. After washing with washing buffer (3×200 μL), 1% SDS (100 μL) is added to each well and the plates are shaken lightly for 1 hr prior to measuring the absorbance at 595 nm (Varioskan® Flash, Thermo-Fisher Scientific).
The measured OD450-655 readings are corrected for cell number by dividing the OD450-655 by the OD595 readings. The percentage induction for each well is calculated relative to vehicle, and the ratio of induction normalised in comparison with the induction produced by a standard control comprising of N-(4-(4-(3-(3-tert-butyl-1-p-tolyl-1H-pyrazol-5-yl)ureido)naphthalen-1-yloxy)pyridin-2-yl)-2-methoxyacetamide (1 μg/mL) which is defined as 100%.

p38 MAPKα = p38 MAPKα (Homo sapiens (Human), UniProt Q16539); assay: p38 MAPKα enzyme inhibition (FRET, Z-LYTE), Method 2; assay type: biochemical
Chain of p38 MAPKα (Q16539 whole entry): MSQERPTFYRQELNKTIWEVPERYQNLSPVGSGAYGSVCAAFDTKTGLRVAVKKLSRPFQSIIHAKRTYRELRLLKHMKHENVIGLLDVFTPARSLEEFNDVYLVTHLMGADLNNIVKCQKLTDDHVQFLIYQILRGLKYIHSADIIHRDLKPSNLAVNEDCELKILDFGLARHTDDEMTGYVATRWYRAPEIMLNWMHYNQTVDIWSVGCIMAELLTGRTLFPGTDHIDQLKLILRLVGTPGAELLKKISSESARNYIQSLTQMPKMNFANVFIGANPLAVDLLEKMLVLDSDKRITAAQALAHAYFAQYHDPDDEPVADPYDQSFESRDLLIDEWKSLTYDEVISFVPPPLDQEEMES

c-Src = c-Src (Homo sapiens (Human), UniProt P12931); assay: c-Src enzyme inhibition (FRET, Z-LYTE); assay type: biochemical
Chain of c-Src (P12931 whole entry, looked up): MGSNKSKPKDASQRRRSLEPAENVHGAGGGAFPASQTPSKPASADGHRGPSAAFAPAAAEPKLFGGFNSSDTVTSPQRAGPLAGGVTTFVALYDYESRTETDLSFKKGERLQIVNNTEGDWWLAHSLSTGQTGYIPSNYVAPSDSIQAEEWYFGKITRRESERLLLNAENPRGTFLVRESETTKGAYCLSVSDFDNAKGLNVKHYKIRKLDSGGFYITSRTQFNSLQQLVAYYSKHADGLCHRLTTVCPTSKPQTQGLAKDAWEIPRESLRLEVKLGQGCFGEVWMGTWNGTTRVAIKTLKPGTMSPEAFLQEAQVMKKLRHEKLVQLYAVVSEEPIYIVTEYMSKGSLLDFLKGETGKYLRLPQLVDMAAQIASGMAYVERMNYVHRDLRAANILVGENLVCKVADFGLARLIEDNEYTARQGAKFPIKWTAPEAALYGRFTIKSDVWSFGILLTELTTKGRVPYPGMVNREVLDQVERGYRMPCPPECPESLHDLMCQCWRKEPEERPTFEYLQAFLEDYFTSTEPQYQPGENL
Procedure: as §1
as §2, with “The” for “The inhibitory activities of compounds of the invention against c-Src and Syk enzymes (Invitrogen), are evaluated in a similar fashion to that described hereinabove. The”
as §3

HT29 cells = assay: IL-1β-induced IL-8 release in HT29 cells, assay (d); assay type: cell-based; details: Homo sapiens, HT-29, IL-1β-stimulated HT29 cells, read-out: IC50 Values for Inhibition of Cytokine Release, HT29 cells IL-8
Procedure: HT29 cells, a human colon adenocarcinoma cell line, are plated in a 96 well plate (24 hrs) and pre-treated with compounds at the desired concentration for 2 hours before addition of 5 ng/mL of IL-1β (Abcam) for 24 hours. Supernatants are harvested for IL-8 quantification by Sandwich ELISA (Duo-set, R&D System). The IC50 is determined from the dose response curve.

[3] = 1 μg/mL test compound, normalised to reference N-(4-(4-(3-(3-tert-butyl-1-p-tolyl-1H-pyrazol-5-yl)ureido)naphthalen-1-yloxy)pyridin-2-yl)-2-methoxyacetamide
[4] = 5 μg/mL test compound, normalised to the same reference compound
[5] = 10 μg/mL test compound, normalised to the same reference compound

IC50 (Syk)	IC50 (GSK3α)	IC50 (p38 MAPKα)	IC50 (c-Src)	IC50 (HT29 cells)	Compound	IC50 (PBMCs [1])	IC50 (PBMCs [2])	% β-catenin induction (d-U937 cells; [3])	% β-catenin induction (d-U937 cells; [4])	% β-catenin induction (d-U937 cells; [5])
> 1000 nM	3070 nM	20 nM	5 nM	–	C#Cc1cc(Nc2nccc(Oc3ccc(NC(=O)Nc4cc(C(C)(C)C)nn4CC)c4ccccc34)n2)cc(C(=O)NCCOCCOCCOC)c1 [Example 8, 3-((4-((4-(3-(3-(tert-Butyl)-1-ethyl-1H-pyrazol-5-yl)ureido)naphthalen-1-yl)oxy)pyrimidin-2-yl)amino)-5-ethynyl-N-(2-(2-(2-methoxyethoxy)ethoxy)ethyl)benzamide]	13.2 nM	4.8 nM	2.5%	4%	3.5%
> 1000 nM	12400 nM	66 nM	53 nM	18 nM	C#Cc1cc(Nc2cc(Oc3ccc(NC(=O)Nc4cc(C(C)(C)C)nn4C)c4ccccc34)ccn2)cc(C(=O)NCCOCCOCCOC)c1 [Example 9, 3-((4-((4-(3-(3-(tert-Butyl)-1-methyl-1H-pyrazol-5-yl)ureido)naphthalen-1-yl)oxy)pyridin-2-yl)amino)-5-ethynyl-N-(2-(2-(2-methoxyethoxy)ethoxy)ethyl)benzamide]	33.7 nM	3.8 nM	−2.5%	−1%	4.5%
819 nM	14100 nM	9 nM	8 nM	270 nM	C#Cc1cc(Nc2nccc(Oc3ccc(NC(=O)Nc4cc(C(C)C)nn4C)c4ccccc34)n2)cc(C(=O)NCCN2CCOCC2)c1 [Example 10, 3-Ethynyl-5-((4-((4-(3-(3-isopropyl-1-methyl-1H-pyrazol-5-yl)ureido)naphthalen-1-yl)oxy)pyrimidin-2-yl)amino)-N-(2-morpholinoethyl)benzamide]	–	15.6 nM	–	–	–
> 1000 nM	9520 nM	13 nM	9 nM	> 1000 nM	C#Cc1cc(Nc2nccc(Oc3ccc(NC(=O)Nc4cc(C(C)C)nn4C)c4ccccc34)n2)cc(C(=O)NCCOCCOCCOC)c1 [Example 11, 3-Ethynyl-5-((4-((4-(3-(3-isopropyl-1-methyl-1H-pyrazol-5-yl)ureido)naphthalen-1-yl)oxy)pyrimidin-2-yl)amino)-N-(2-(2-(2-methoxyethoxy)ethoxy)ethyl)benzamide]	–	26.1 nM	–	–	–
